ChEMBL document CHEMBL1201862, “PubChem BioAssay data set” (2004)
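Results reflect a 48-hour exposure of cells in 96-well plates to compound at five concentrations. GI50 marks 50% less growth.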 Activity calls are given as the source filed them. Rule as the data show it: active = GI50 up to about 1.1 µM and inactive = higher.

Experiments:
Assay in all cases: DTP human tumour cell line panel, 48 h
OVCAR-8 = system: OVCAR-8
SK-MEL-5 = system: SK-MEL-5
KM12 = system: KM12
CCRF-CEM = system: CCRF-CEM
SK-MEL-2 = system: SK-MEL-2
HCC 2998 = system: HCC 2998
Malme-3M = system: Malme-3M
K562 = system: K562
SR = system: SR
OVCAR-4 = system: OVCAR-4
HCT-15 = system: HCT-15
TK-10 = system: TK-10
SF-295 = system: SF-295
UACC-62 = system: UACC-62
SNB-75 = system: SNB-75
M14 = system: M14
ACHN = system: ACHN
HOP-62 = system: HOP-62
SW-620 = system: SW-620
NCI-H460 = system: NCI-H460

| SMILES | GI50 (OVCAR-8) | GI50 (SK-MEL-5) | GI50 (KM12) | GI50 (CCRF-CEM) | GI50 (SK-MEL-2) | GI50 (HCC 2998) | GI50 (Malme-3M) | GI50 (K562) | GI50 (SR) | GI50 (OVCAR-4) | GI50 (HCT-15) [µM] | GI50 (TK-10) | GI50 (SF-295) | GI50 (UACC-62) | GI50 (SNB-75) | GI50 (M14) | GI50 (ACHN) | GI50 (HOP-62) | GI50 (SW-620) | GI50 (NCI-H460) |
| --- | --- | --- | --- | --- | --- | --- | --- | --- | --- | --- | --- | --- | --- | --- | --- | --- | --- | --- | --- | --- |
| CNC(=O)N(CCC#N)CCN(C(=O)NC)c1ccccc1 | > 100 µM (inactive) | > 100 µM (inactive) | > 100 µM (inactive) | > 100 µM (inactive) | > 100 µM (inactive) | > 100 µM (inactive) | > 73.8 µM (inactive) | > 100 µM (inactive) | > 100 µM (inactive) | > 100 µM (inactive) | > 100 | > 100 µM (inactive) | > 100 µM (inactive) | > 100 µM (inactive) | 65 µM (inactive) | > 100 µM (inactive) | > 100 µM (inactive) | > 100 µM (inactive) | > 100 µM (inactive) | > 100 µM (inactive) |
| Cc1nc2cc(/N=N/c3c(C)noc3C)ccc2[nH]1 | 24.5 µM (inactive) | 12.4 µM (inactive) | 49.8 µM (inactive) | 25.2 µM (inactive) | 34.8 µM (inactive) | 54.3 µM (inactive) | 25.9 µM (inactive) | 35.6 µM (inactive) | 16.9 µM (inactive) | 64.7 µM (inactive) | 27.2 | 22.9 µM (inactive) | 23.4 µM (inactive) | 27 µM (inactive) | 5.28 µM (inactive) | 26.5 µM (inactive) | 25.1 µM (inactive) | 27.1 µM (inactive) | 24.8 µM (inactive) | 21.8 µM (inactive) |
| O=C1OC(c2ccco2)=N/C1=C\c1ccc(Cl)c(Cl)c1 | 56.2 µM (inactive) | > 100 µM (inactive) | > 100 µM (inactive) | > 100 µM (inactive) | > 100 µM (inactive) | 70.8 µM (inactive) | 86.1 µM (inactive) | > 100 µM (inactive) | > 100 µM (inactive) | 85.1 µM (inactive) | > 100 | 66.7 µM (inactive) | > 100 µM (inactive) | > 100 µM (inactive) | 53.8 µM (inactive) | > 100 µM (inactive) | 60 µM (inactive) | 27.4 µM (inactive) | > 100 µM (inactive) | 88.7 µM (inactive) |
| O=c1c2cccnc2[nH]c2ccc3cn[nH]c3c12 | 6.76 µM (inactive) | > 10 µM (inactive) | 5.05 µM (inactive) | 6.15 µM (inactive) | > 10 µM (inactive) | > 10 µM (inactive) | > 10 µM (inactive) | > 10 µM (inactive) | 3.29 µM (inactive) | > 10 µM (inactive) | 9.42 | > 10 µM (inactive) | > 10 µM (inactive) | > 10 µM (inactive) | 7.89 µM (inactive) | 7.14 µM (inactive) | 3.97 µM (inactive) | > 10 µM (inactive) | > 10 µM (inactive) | 7.43 µM (inactive) |
| [O-]/[N+](=N/c1ncc(-c2ccccc2)cn1)c1ncc(-c2ccccc2)cn1 | > 96.6 µM (inactive) | 42.7 µM (inactive) | 67.6 µM (inactive) | 34.4 µM (inactive) | > 100 µM (inactive) | > 100 µM (inactive) | 32.2 µM (inactive) | 52.8 µM (inactive) | 16.4 µM (inactive) | 54.6 µM (inactive) | 36.4 | > 100 µM (inactive) | 73.5 µM (inactive) | > 100 µM (inactive) | > 100 µM (inactive) | > 100 µM (inactive) | > 100 µM (inactive) | > 100 µM (inactive) | > 95.7 µM (inactive) | > 100 µM (inactive) |
| CC1C=CN(N(C)C)C2=C1C(=O)c1cnccc1C2=O (stereo not given) | 0.883 µM (active) | 0.274 µM (active) | 1.24 µM (inactive) | 2.09 µM (inactive) | 1.63 µM (inactive) | 0.589 µM (active) | 0.334 µM (active) | 0.205 µM (active) | 0.0156 µM (active) | 0.662 µM (active) | 0.231 | 0.513 µM (active) | 0.676 µM (active) | 0.167 µM (active) | 0.315 µM (active) | 0.424 µM (active) | 0.251 µM (active) | 0.349 µM (active) | 0.395 µM (active) | 0.148 µM (active) |
| COc1ccc(C(=O)N=C2N(c3ccccc3)C(=N/c3ccccc3)/C(=N\c3ccccc3)N2c2ccccc2)cc1 | 20 µM (inactive) | 23.2 µM (inactive) | > 61.2 µM (inactive) | > 100 µM (inactive) | 21.3 µM (inactive) | > 85.7 µM (inactive) | 20.6 µM (inactive) | > 100 µM (inactive) | > 100 µM (inactive) | 21.9 µM (inactive) | > 100 | 18.5 µM (inactive) | 33.3 µM (inactive) | 37.1 µM (inactive) | 7.82 µM (inactive) | 8.22 µM (inactive) | 22.5 µM (inactive) | 8.63 µM (inactive) | 99.8 µM (inactive) | 47.1 µM (inactive) |
| CCCCCC(/C=C/[C@@H]1CC(=O)C[C@H]1O[Si](C)(C)C(C)(C)C)OCOCCOC (stereo not given in full) | 4.23 µM (inactive) | 3.33 µM (inactive) | 3 µM (inactive) | > 100 µM (inactive) | 4.22 µM (inactive) | 13.6 µM (inactive) | 2.35 µM (inactive) | 2.4 µM (inactive) | 1.5 µM (inactive) | 5.56 µM (inactive) | 3.86 | 12.9 µM (inactive) | 11 µM (inactive) | 2.7 µM (inactive) | 2.19 µM (inactive) | 4.04 µM (inactive) | 2.96 µM (inactive) | 15.5 µM (inactive) | 2.96 µM (inactive) | 17.2 µM (inactive) |
| Cc1nc2c(n1-c1ccccc1)C(=O)c1ccccc1C2=O | 42.4 µM (inactive) | 25.8 µM (inactive) | 50.2 µM (inactive) | 32.1 µM (inactive) | > 100 µM (inactive) | 39.6 µM (inactive) | 11.3 µM (inactive) | 32.2 µM (inactive) | 37.1 µM (inactive) | 28.2 µM (inactive) | 20.6 | > 100 µM (inactive) | 38.4 µM (inactive) | 23.4 µM (inactive) | > 100 µM (inactive) | 42 µM (inactive) | 56.9 µM (inactive) | > 100 µM (inactive) | 35.5 µM (inactive) | 39.3 µM (inactive) |
| Cc1cc(O)c(C(=O)CC2(O)C(=O)Nc3c(Cl)cc(Cl)cc32)c(=O)o1 (stereo not given) | > 100 µM (inactive) | > 100 µM (inactive) | > 100 µM (inactive) | 63 µM (inactive) | > 100 µM (inactive) | > 100 µM (inactive) | > 100 µM (inactive) | > 100 µM (inactive) | > 100 µM (inactive) | > 100 µM (inactive) | > 100 | > 100 µM (inactive) | > 100 µM (inactive) | > 100 µM (inactive) | 26.6 µM (inactive) | > 100 µM (inactive) | > 100 µM (inactive) | > 100 µM (inactive) | 52.1 µM (inactive) | > 100 µM (inactive) |
| Nc1ncnc2c1ncn2C1C=C(CO)C(O)C1O (stereo not given) | 3.75 µM (inactive) | 20.3 µM (inactive) | 0.264 µM (active) | 0.305 µM (active) | 29.7 µM (inactive) | 4.72 µM (inactive) | 5.33 µM (inactive) | 0.0452 µM (active) | 0.0254 µM (active) | 6.24 µM (inactive) | 0.468 | 6.64 µM (inactive) | 24.5 µM (inactive) | 3.56 µM (inactive) | 7.55 µM (inactive) | 9.57 µM (inactive) | 4.48 µM (inactive) | 3.26 µM (inactive) | 2.06 µM (inactive) | 0.637 µM (active) |
